Measured values published in ChEMBL document CHEMBL5291721, “A preclinical secondary pharmacology resource illuminates target-adverse drug reaction associations of marketed drugs” (Nat Commun, 2023).

Key:
[1] = target: 5-hydroxytryptamine receptor 2B (Homo sapiens, UniProt P41595); format: functional, cell-based
D(1A) dopamine receptor = D(1A) dopamine receptor (Homo sapiens, UniProt P21728); format: functional, cell-based
[2] = target: T1, Alpha-2A adrenergic receptor (Homo sapiens, UniProt P08913); format: functional, cell-based
T1 sequence (P08913 whole entry): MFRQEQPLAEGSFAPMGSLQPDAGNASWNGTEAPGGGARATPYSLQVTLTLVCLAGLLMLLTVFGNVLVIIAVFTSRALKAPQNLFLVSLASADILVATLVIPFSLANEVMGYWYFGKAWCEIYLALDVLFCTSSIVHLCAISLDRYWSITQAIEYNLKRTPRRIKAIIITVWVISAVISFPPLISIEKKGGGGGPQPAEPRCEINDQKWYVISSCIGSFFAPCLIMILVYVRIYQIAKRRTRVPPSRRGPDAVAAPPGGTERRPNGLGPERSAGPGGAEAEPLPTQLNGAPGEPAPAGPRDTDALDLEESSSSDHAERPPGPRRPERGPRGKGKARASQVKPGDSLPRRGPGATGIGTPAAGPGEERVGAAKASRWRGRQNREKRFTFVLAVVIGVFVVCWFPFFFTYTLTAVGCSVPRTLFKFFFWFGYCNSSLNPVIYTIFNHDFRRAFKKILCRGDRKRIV

[3] = target: Growth hormone secretagogue receptor type 1 (Homo sapiens, UniProt Q92847)
[4] = target: T2, Cholecystokinin receptor type A (Homo sapiens, UniProt P32238)
T2 sequence (P32238 whole entry): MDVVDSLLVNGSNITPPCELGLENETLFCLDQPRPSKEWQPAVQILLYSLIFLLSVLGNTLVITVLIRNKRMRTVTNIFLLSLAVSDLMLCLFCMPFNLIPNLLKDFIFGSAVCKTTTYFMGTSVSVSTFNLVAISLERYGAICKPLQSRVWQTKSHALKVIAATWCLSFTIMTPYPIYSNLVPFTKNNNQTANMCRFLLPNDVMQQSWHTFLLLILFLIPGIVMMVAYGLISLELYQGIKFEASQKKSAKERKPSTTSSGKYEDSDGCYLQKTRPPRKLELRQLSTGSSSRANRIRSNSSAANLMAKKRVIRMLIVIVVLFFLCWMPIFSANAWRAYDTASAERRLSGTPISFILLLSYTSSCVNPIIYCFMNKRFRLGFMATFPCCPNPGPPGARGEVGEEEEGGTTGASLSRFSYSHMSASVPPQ

[5] = target: cGMP-inhibited 3',5'-cyclic phosphodiesterase 3A (Homo sapiens, UniProt Q14432); format: functional
[6] = target: T3, 5-hydroxytryptamine receptor 2C (Homo sapiens, UniProt P28335)
T3 sequence (P28335 whole entry): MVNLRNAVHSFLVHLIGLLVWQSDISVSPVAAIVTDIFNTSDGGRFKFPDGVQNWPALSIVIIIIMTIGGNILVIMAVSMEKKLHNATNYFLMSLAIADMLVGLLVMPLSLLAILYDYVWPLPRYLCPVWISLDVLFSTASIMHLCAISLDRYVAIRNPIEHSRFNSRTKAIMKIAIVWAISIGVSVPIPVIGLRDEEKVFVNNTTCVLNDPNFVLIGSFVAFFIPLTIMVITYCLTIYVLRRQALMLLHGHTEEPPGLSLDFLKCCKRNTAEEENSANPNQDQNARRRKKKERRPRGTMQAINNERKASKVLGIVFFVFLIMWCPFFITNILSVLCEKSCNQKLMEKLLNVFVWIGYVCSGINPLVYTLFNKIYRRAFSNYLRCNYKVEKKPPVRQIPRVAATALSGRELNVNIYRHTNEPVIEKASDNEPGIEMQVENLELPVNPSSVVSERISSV

Adenosine receptor A3 = target: T4, Adenosine receptor A3 (Homo sapiens, UniProt P0DMS8)
T4 sequence (P0DMS8 whole entry): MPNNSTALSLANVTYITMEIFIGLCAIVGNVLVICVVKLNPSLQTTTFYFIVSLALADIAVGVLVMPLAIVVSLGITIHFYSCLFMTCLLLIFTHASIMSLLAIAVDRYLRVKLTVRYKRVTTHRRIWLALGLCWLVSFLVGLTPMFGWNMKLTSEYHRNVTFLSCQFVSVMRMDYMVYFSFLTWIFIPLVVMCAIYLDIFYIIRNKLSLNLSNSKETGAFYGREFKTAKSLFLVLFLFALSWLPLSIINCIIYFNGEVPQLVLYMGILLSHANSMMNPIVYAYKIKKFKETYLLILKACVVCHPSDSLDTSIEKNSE

[7] = target: Delta-type opioid receptor (Homo sapiens, UniProt P41143)
[8] = target: T5, 5-hydroxytryptamine receptor 3A (Homo sapiens, UniProt P46098); format: functional
T5 sequence (P46098 whole entry): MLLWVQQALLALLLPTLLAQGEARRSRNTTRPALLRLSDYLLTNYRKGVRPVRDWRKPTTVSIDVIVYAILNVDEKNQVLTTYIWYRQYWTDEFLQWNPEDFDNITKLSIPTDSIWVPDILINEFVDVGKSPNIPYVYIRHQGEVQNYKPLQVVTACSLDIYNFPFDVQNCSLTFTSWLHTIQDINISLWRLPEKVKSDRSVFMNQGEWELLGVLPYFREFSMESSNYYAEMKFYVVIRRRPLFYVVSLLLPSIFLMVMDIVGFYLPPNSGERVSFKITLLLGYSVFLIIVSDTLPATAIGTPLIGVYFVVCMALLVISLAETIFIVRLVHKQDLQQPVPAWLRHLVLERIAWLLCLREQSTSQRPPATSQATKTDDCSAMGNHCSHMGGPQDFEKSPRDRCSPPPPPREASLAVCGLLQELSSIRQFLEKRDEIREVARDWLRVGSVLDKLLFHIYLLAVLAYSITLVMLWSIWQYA

[9] = target: Voltage-gated inwardly rectifying potassium channel KCNH2 (Homo sapiens, UniProt Q12809); format: functional; conditions: read-out: AC50
[10] = target: 3',5'-cyclic-AMP phosphodiesterase 4D (Homo sapiens, UniProt Q08499); format: functional
Motilin receptor = Motilin receptor (Homo sapiens, UniProt O43193)
[11] = target: T1, Alpha-2A adrenergic receptor; format: functional, cell-based; remark: listed apart in the source
Melanocortin receptor 3 = Melanocortin receptor 3 (Homo sapiens, UniProt P41968)
Also: assay procedure not described here.

Sequence of 3',5'-cyclic-AMP phosphodiesterase 4D (Q08499 whole entry): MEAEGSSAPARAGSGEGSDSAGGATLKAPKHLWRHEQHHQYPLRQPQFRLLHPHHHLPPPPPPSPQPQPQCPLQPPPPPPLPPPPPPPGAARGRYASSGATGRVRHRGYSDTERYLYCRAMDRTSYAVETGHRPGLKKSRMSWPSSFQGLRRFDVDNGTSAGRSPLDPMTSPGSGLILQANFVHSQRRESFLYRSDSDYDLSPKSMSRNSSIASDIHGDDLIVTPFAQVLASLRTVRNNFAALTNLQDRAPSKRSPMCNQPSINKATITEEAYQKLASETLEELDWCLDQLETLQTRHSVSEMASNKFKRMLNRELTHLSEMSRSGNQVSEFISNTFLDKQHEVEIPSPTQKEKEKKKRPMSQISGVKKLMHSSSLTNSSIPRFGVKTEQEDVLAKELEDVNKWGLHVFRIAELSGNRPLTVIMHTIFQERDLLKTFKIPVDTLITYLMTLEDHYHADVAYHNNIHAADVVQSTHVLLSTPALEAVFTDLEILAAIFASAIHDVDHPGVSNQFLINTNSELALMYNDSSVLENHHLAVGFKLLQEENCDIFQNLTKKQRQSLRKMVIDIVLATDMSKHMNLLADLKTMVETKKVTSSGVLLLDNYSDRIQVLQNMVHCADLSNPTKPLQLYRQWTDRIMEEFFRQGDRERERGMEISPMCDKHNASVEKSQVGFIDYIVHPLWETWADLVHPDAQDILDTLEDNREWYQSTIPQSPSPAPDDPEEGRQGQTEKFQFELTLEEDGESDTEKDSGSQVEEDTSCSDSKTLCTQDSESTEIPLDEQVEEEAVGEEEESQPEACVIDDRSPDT
Sequence of Delta-type opioid receptor (P41143 whole entry): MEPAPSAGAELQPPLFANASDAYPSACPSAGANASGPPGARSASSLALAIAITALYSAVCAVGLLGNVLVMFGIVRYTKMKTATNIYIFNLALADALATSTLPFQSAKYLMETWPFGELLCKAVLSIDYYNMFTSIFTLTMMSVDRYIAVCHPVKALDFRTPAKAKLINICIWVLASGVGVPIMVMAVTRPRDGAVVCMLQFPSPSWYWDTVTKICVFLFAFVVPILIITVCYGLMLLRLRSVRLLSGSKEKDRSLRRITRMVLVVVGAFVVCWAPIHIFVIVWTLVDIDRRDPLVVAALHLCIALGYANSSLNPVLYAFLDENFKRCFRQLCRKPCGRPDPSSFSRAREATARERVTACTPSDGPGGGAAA
Sequence of Voltage-gated inwardly rectifying potassium channel KCNH2 (Q12809 whole entry): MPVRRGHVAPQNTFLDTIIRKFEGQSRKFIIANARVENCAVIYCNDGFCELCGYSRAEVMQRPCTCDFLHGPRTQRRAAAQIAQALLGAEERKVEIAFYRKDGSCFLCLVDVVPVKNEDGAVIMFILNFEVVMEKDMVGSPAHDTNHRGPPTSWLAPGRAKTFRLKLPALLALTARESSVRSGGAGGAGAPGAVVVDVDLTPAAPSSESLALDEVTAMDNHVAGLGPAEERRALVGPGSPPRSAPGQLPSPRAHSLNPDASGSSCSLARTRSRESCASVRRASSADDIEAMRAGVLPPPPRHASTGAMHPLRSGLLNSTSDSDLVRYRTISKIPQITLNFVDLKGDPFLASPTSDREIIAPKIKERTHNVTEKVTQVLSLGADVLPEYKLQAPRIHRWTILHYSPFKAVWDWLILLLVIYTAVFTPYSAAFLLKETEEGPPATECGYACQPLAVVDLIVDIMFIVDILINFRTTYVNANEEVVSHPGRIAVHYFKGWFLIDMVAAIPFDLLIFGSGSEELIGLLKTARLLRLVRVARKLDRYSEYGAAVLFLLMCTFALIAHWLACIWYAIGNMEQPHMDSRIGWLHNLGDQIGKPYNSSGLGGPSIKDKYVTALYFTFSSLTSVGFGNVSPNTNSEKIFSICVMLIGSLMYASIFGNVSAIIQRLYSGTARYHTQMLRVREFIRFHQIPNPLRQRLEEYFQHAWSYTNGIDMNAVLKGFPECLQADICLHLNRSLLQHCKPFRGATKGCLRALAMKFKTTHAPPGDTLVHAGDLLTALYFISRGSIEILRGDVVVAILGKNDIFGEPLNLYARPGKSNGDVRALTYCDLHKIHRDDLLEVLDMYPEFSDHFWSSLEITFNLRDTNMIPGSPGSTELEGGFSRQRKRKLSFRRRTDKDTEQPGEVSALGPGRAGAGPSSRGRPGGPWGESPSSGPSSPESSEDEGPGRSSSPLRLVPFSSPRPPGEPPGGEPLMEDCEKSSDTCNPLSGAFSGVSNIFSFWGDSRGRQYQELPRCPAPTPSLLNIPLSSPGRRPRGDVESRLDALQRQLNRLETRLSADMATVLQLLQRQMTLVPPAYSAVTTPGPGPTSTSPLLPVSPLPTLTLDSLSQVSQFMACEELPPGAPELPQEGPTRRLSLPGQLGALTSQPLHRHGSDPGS
Sequence of cGMP-inhibited 3',5'-cyclic phosphodiesterase 3A (Q14432 whole entry): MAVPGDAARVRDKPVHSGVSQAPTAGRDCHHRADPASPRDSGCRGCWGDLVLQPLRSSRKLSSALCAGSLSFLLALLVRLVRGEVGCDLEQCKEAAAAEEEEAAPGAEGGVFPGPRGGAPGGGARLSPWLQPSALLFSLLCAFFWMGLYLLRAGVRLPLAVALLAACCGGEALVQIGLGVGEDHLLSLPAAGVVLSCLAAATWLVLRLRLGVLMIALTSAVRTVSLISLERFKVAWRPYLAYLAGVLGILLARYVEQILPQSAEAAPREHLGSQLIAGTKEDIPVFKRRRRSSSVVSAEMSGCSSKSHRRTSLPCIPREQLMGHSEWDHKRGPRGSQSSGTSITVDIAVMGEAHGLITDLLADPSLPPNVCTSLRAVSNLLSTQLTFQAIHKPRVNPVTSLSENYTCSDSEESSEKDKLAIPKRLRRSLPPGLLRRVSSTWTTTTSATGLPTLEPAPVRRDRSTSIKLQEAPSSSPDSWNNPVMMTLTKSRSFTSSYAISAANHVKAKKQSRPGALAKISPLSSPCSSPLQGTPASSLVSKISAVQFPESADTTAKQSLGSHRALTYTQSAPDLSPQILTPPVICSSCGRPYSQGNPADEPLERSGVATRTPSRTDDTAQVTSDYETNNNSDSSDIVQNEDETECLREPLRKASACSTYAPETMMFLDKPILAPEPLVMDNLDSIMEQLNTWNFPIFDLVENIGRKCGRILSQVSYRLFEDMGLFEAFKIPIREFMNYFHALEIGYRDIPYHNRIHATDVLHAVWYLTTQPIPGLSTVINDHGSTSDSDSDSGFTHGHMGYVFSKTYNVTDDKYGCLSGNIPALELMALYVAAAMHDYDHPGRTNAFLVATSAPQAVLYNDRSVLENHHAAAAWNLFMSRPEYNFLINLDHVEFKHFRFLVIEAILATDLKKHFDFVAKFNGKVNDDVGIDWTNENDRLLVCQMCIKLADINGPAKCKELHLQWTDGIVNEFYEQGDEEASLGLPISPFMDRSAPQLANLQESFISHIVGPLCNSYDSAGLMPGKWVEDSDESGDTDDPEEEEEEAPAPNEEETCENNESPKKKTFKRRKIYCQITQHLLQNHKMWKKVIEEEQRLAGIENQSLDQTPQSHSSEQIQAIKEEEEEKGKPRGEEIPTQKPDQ
Sequence of D(1A) dopamine receptor (P21728 whole entry): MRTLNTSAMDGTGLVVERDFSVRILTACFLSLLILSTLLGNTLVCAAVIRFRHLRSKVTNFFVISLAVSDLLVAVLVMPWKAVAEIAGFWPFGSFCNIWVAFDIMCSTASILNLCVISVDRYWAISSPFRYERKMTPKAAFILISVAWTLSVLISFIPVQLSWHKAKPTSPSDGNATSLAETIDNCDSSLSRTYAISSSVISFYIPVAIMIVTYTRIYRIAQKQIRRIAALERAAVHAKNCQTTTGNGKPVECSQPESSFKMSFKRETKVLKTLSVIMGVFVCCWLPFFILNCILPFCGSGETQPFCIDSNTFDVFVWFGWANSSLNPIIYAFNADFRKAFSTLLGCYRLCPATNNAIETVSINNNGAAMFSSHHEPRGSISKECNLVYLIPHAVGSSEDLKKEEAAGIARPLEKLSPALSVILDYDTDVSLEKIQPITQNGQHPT
Sequence of 5-hydroxytryptamine receptor 2B (P41595 whole entry): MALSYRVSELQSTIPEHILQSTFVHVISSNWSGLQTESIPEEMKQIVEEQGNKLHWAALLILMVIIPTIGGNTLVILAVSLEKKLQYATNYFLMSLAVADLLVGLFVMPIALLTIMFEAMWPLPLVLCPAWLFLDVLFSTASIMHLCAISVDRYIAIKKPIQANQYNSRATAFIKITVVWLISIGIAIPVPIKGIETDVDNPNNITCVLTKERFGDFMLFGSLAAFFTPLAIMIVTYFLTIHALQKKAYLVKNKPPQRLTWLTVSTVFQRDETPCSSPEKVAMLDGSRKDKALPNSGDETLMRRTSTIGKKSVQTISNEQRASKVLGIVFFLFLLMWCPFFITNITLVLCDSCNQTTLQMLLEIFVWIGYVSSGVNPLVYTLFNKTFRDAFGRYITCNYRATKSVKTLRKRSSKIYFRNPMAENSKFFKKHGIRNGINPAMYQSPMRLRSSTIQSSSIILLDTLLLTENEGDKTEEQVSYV
Sequence of Motilin receptor (O43193 whole entry): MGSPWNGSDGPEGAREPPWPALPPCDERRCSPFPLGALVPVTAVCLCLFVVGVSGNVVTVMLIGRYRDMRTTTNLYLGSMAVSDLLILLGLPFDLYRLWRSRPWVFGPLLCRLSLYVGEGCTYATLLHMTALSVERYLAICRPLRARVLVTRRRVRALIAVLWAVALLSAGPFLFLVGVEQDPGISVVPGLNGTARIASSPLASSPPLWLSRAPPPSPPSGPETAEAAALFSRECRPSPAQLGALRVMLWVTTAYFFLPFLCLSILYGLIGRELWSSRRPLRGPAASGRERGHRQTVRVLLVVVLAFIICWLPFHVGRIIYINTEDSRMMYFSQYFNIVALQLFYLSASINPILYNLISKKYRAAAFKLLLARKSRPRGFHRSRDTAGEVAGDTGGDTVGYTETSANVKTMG

| Compound | AC50 [1] | AC50 (D(1A) dopamine receptor) | AC50 [2] | AC50 [3] | AC50 [4] | AC50 [5] | AC50 [6] | AC50 (Adenosine receptor A3) | AC50 [7] | AC50 [8] | AC50 [9] | AC50 [10] | AC50 (Motilin receptor) | AC50 [11] | AC50 (Melanocortin receptor 3) |
| --- | --- | --- | --- | --- | --- | --- | --- | --- | --- | --- | --- | --- | --- | --- | --- |
| CN(C)CCc1c[nH]c2ccc(CS(=O)(=O)N3CCCC3)cc12 [ALMOTRIPTAN] | 11 µM | > 30 µM | > 30 µM | > 30 µM | > 30 µM | > 30 µM | > 30 µM | > 30 µM | > 30 µM | > 30 µM | 15 µM | > 30 µM | > 30 µM | > 30 µM | > 30 µM |
| CC[N+](CC)(CCNC(=O)C(=O)NCC[N+](CC)(CC)Cc1ccccc1Cl)Cc1ccccc1Cl [AMBENONIUM] | > 30 µM | > 30 µM | > 30 µM | > 30 µM | > 30 µM | > 30 µM | > 30 µM | > 30 µM | > 30 µM | > 30 µM | 7.8 µM | > 30 µM | > 30 µM | > 30 µM | > 30 µM |
| NCCCNCCSP(=O)(O)O [AMIFOSTINE] | > 30 µM | > 30 µM | > 30 µM | > 30 µM | > 30 µM | > 30 µM | > 30 µM | > 30 µM | > 30 µM | > 30 µM | > 30 µM | > 30 µM | > 30 µM | > 30 µM | > 30 µM |
| NCCCCCC(=O)O [AMINOCAPROIC ACID] | > 10 µM | > 10 µM | > 10 µM | > 10 µM | > 10 µM | > 30 µM | > 30 µM | > 10 µM | > 30 µM | > 30 µM | > 30 µM | > 30 µM | > 10 µM | > 10 µM | > 10 µM |
| CC(=O)Oc1ccccc1C(=O)O [ASPIRIN] | > 10 µM | > 10 µM | > 10 µM | > 30 µM | > 30 µM | > 30 µM | > 30 µM | > 30 µM | > 30 µM | > 30 µM | > 30 µM | > 30 µM | > 10 µM | > 10 µM | > 30 µM |
| CC(C)C[C@H](NC(=O)[C@H](Cc1ccccc1)NC(=O)c1cnccn1)B(O)O [BORTEZOMIB] | > 30 µM | > 30 µM | > 30 µM | > 30 µM | > 30 µM | > 30 µM | > 30 µM | > 30 µM | > 30 µM | > 30 µM | > 30 µM | > 30 µM | > 30 µM | > 30 µM | > 30 µM |
